Earlier results in patent US20230248814A1, “COMPOSITIONS AND METHODS FOR TREATING MERKEL CELL CARCINOMA (MCC) USING HLA CLASS I SPECIFIC EPITOPES” (The Broad Institute, Inc., priority 2020, published 2023).

Tests used:
USP7 = USP7 (Homo sapiens, UniProt Q93009); conditions: cited from earlier work
[1] = system: advanced hormone refractory prostate cancer patients; conditions: personalized vaccination combined with low dose estramustine; cited from earlier work
[2] = system: ovarian carcinoma patients; conditions: poly-ICLC with NY-ESO-1 peptide vaccine and Montanide; cited from earlier work
healthy human volunteers = conditions: one single s.c. administration; 8 subjects vs 4 placebo; cited from earlier work

Chain of USP7 (Q93009 whole entry): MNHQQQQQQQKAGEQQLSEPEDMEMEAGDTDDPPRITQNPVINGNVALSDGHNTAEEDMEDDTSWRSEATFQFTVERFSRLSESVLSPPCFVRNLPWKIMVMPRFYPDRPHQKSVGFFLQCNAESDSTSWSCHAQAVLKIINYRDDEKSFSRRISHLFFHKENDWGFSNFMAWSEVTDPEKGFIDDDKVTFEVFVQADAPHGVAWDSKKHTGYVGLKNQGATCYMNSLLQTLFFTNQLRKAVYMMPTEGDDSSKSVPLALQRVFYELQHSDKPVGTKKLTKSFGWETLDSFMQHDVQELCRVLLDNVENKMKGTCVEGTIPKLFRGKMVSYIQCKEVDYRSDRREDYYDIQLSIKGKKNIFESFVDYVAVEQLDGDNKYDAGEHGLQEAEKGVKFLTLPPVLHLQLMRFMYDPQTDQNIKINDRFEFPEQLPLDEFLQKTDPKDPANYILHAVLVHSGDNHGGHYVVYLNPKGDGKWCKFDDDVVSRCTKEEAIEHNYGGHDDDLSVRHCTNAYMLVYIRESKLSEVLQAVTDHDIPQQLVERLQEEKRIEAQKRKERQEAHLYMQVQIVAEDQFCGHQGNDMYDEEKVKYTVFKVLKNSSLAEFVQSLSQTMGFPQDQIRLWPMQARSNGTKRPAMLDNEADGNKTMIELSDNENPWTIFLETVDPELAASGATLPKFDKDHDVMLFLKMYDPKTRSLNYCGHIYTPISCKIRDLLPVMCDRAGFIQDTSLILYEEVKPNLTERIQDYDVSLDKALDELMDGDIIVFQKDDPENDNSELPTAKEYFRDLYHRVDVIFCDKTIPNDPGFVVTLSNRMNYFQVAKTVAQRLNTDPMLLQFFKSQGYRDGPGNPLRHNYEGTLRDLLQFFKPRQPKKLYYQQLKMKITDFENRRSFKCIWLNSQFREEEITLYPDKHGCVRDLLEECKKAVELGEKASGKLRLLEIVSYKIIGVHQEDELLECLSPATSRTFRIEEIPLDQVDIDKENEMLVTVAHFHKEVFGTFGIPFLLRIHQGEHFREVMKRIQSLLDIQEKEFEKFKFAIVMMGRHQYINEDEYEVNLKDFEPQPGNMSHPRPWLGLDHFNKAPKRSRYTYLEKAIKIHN

For `CN1CCN(CCC(=O)Nc2ccc3c(=O)n(CC4(O)CCN(C(=O)[C@H](CCCNC(=O)c5ccc6c(Cl)c7c(nc6c5)CCCC7)Cc5ccccc5)CC4)cnc3c2)CC1` [XL177B], the on-target activity (USP7) is given as “on-target activity at higher doses” and the “potency relative to XL177A (fold less potent)” value (USP7) is given as 500 fold.
In the case of `C[C@]12CC[C@@H]3c4ccc(OC(=O)N(CCCl)CCCl)cc4CC[C@H]3[C@@H]1CC[C@@H]2O` [estramustine], the “patients with >50% decrease in serum PSA” value [1] is given as 54%.
In the case of “Polyinosinic-Polycytidylic Acid-poly-L-lysine Carboxymethylcellulose [poly-ICLC]”, the “patients with induction of CD4+ and CD8+ T cell and antibody responses to the peptide” value [2] is given as over 90% and the “differentially expressed genes versus placebo” value (healthy human volunteers) is given as “up to 212 genes”.
